Data from PMC9845116 (Saudi Pharmaceutical Journal : SPJ, 2022).
Where two headings read alike, the source gives them in different places.

Key:
Assay type in all cases: cell-based
MCF-7 = experiment: MTT cell viability assay, MCF-7
A549 = experiment: MTT cell viability assay, A549; conditions: read-out: IC50(μM) A549
HepG2 = experiment: MTT cell viability assay, HepG2; conditions: read-out: IC50(μM) HepG2
Hela = experiment: MTT cell viability assay, Hela; conditions: 48 h
[1] = Homo sapiens, MCF7, 48 h, read-out: IC50(μM) MCF-7, MTT, 48 h, MCF-7
[2] = Homo sapiens, HeLa, read-out: IC50(μM) Hela, MTT, 48 h, Hela
[3] = read-out: IC50(μM) MCF-7, MTT, 48 h, MCF-7
[4] = read-out: IC50(μM) Hela, MTT, Hela

Compound | IC50 (MCF-7; [1]) [µM] | IC50 (A549; Homo sapiens, A549, 48 h) [µM] | IC50 (HepG2; Homo sapiens, HepG2, 48 h) [µM] | IC50 (Hela; [2]) [µM] | IC50 (MCF-7; [3]) [µM] | IC50 (A549; MTT, 48 h, A549) [µM] | IC50 (HepG2; MTT, 48 h, HepG2) [µM] | IC50 (Hela; [4]) [µM]
COc1cc(OC)c(C(=O)/C=C/c2ccc(Br)cc2)c(OC)c1 [B4, (E)-3-(4-bromophenyl)-1-(2,4,6-trimethoxyphenyl)prop-2-en-1-one] | 12.8 ± 0.64 | 19.8 ± 0.98 | 13 ± 0.74 | 11.8 ± 0.86 |  |  |  | 
COc1cc(OC)c(C(=O)/C=C/c2cn(C)c3ccccc23)c(OC)c1 [B11, (E)-3-(1-methyl-1H-indol-3-yl)-1-(2,4,6-trimethoxyphenyl)prop-2-en-1-one] | > 100 | > 100 | > 100 | > 100 |  |  |  | 
(E)-3-(3,4-dimethoxyphenyl)-1-(2,4,6-trimethoxyphenyl)prop-2-en-1-one [A3] |  |  |  |  | > 100 | > 100 | 35.4 ± 1.37 | 71.5 ± 1.54
COc1cc(OC)c(C(=O)/C=C/c2ccsc2)c(OC)c1 [B5, (E)-3-(thiophen-3-yl)-1-(2,4,6-trimethoxyphenyl)prop-2-en-1-one] | 35.8 ± 1.35 | 46.9 ± 1.15 | 19.9 ± 1.31 | 37.2 ± 1.22 |  |  |  | 
(E)-3-(3,5-dimethoxyphenyl)-1-(2,4,6-trimethoxyphenyl)prop-2-en-1-one [A4] |  |  |  |  | 32.4 ± 1.29 | 71.2 ± 1.56 | 33.4 ± 1.37 | 32.3 ± 1.31
COc1cc(OC)c(C(=O)/C=C/c2coc(Br)c2)c(OC)c1 [B8, (E)-3-(5-bromofuran-3-yl)-1-(2,4,6-trimethoxyphenyl)prop-2-en-1-one] | 48.8 ± 1.45 | > 100 | 20.4 ± 1.52 | 49.8 ± 1.43 |  |  |  | 
COc1cc(OC)c(C(=O)/C=C/c2cnc3ccccc3c2)c(OC)c1 [B10, (E)-3-(quinolin-3-yl)-1-(2,4,6-trimethoxyphenyl)prop-2-en-1-one] | 10.7 ± 0.62 | 15.5 ± 0.74 | 8.92 ± 0.68 | 13.6 ± 0.83 |  |  |  | 
COc1cc(OC)c(C(=O)/C=C/c2ccccn2)c(OC)c1 [B1, (E)-3-(pyridin-2-yl)-1-(2,4,6-trimethoxyphenyl)prop-2-en-1-one] | 8.74 ± 0.63 | 10.6 ± 0.38 | 10.8 ± 0.39 | 11.9 ± 0.44 |  |  |  | 
O=c1[nH]cc(F)c(=O)[nH]1 [5-Fu, 5-fluorouracil, reference compound] | 55.2 ± 1.92 | 43.5 ± 1.22 | 45.4 ± 1.35 | 43.8 ± 1.53 |  |  |  | 
COc1cc(OC)c(C(=O)/C=C/c2c(OC)cc(OC)c(C)c2OC)c(OC)c1 [A6, (E)-3-(2,4,6-trimethoxy-3-methylphenyl)-1-(2,4,6-trimethoxyphenyl)prop-2-en-1-one] | > 100 | 63.3 ± 1.41 | > 100 | > 100 |  |  |  | 
COc1cc(OC)c(C(=O)/C=C/c2ccoc2)c(OC)c1 [B7, (E)-3-(furan-3-yl)-1-(2,4,6-trimethoxyphenyl)prop-2-en-1-one] | 82.9 ± 2.65 | 47.4 ± 2.12 | 61.4 ± 1.34 | 81.3 ± 2.44 |  |  |  | 
COc1cc(OC)c(C(=O)/C=C/c2ccccc2)c(OC)c1 [A7, (E)-3-phenyl-1-(2,4,6-trimethoxyphenyl)prop-2-en-1-one] | 57.8 ± 1.45 | 59.4 ± 1.72 | 47.1 ± 1.42 | 46.5 ± 1.33 |  |  |  | 
COc1cc(OC)c(C(=O)/C=C/C2=CSC(Br)=CC2)c(OC)c1 [B6, (E)-3-(6-bromo-4H-thiopyran-3-yl)-1-(2,4,6-trimethoxyphenyl)prop-2-en-1-one] | 26.3 ± 0.94 | 31.3 ± 0.63 | 19.5 ± 0.59 | 18.9 ± 0.73 |  |  |  | 
(E)-3-(3-hydroxy-4-methoxyphenyl)-1-(2,4,6-trimethoxyphenyl)prop-2-en-1-one [A5] |  |  |  |  | 24.7 ± 0.94 | 70.9 ± 1.82 | 40.7 ± 1.29 | 38.8 ± 1.21

Results, then the compound that gave them:

IC50 (MCF-7; [1]) [µM] | IC50 (A549; Homo sapiens, A549, 48 h) [µM] | IC50 (HepG2; Homo sapiens, HepG2, 48 h) [µM] | IC50 (Hela; [2]) [µM] | IC50 (MCF-7; [3]) [µM] | IC50 (A549; MTT, 48 h, A549) [µM] | IC50 (HepG2; MTT, 48 h, HepG2) [µM] | IC50 (Hela; [4]) [µM] | Compound
> 100 | > 100 | > 100 | > 100 |  |  |  |  | COc1cc(OC)c(C(=O)/C=C/c2ccc(OCc3ccccc3)cc2)c(OC)c1 [C4, (E)-3-(4-(benzyloxy)phenyl)-1-(2,4,6-trimethoxyphenyl)prop-2-en-1-one]
> 100 | > 100 | > 100 | > 100 |  |  |  |  | COc1cc(OC)c(C(=O)/C=C/c2ccc(OCc3cc4ccccc4[nH]c3=O)cc2)c(OC)c1 [C10, (E)-3-((4-(3-oxo-3-(2,4,6-trimethoxyphenyl)prop-1-en-1-yl)phenoxy)methyl)quinolin-2(1H)-one]
7.92 ± 0.59 | 10.7 ± 0.74 | 17.6 ± 0.74 | 35 ± 0.83 |  |  |  |  | COc1cc(OC)c(C(=O)/C=C/c2cc3ccccc3[nH]c2=O)c(OC)c1 [B14, (E)-3-(3-oxo-3-(2,4,6-trimethoxyphenyl)prop-1-en-1-yl)quinolin-2(1H)-one]
35.3 ± 1.14 | 40.6 ± 1.51 | 25.6 ± 0.77 | 30.5 ± 0.89 |  |  |  |  | COc1cc(OC)c(C(=O)/C=C/c2ccc(-c3ccc(F)cc3)cc2)c(OC)c1 [B13, (E)-3-(4′-fluoro-[1,1′-biphenyl]-4-yl)-1-(2,4,6-trimethoxyphenyl)prop-2-en-1-one]
> 100 | > 100 | 39.3 ± 1.55 | 45.5 ± 1.59 |  |  |  |  | COc1cc(OC)c(C(=O)/C=C/c2ccc(OCC3CC3)cc2)c(OC)c1 [C1, (E)-3-(4-(cyclopropylmethoxy)phenyl)-1-(2,4,6-trimethoxyphenyl)prop-2-en-1-one]
87.8 ± 2.7 | > 100 | 51.1 ± 2.1 | 35 ± 1.17 |  |  |  |  | COc1cc(OC)c(C(=O)/C=C/c2ccc(OCc3ccsc3)cc2)c(OC)c1 [C7, (E)-3-(4-(thiophen-3-ylmethoxy)phenyl)-1-(2,4,6-trimethoxyphenyl)prop-2-en-1-one]
51.6 ± 1.23 | 44.5 ± 1.05 | 38.1 ± 1.45 | 46.3 ± 1.07 |  |  |  |  | COc1cc(OC)c(C(=O)/C=C/c2ccc(-c3ccccc3)cc2)c(OC)c1 [B12, (E)-3-([1,1′-biphenyl]-4-yl)-1-(2,4,6-trimethoxyphenyl)prop-2-en-1-one]
16 ± 0.56 | 20.4 ± 0.67 | 18 ± 0.62 | 4.91 ± 0.3 |  |  |  |  | COc1cc(OC)c(C(=O)/C=C/c2cc3cc(C)ccc3[nH]c2=O)c(OC)c1 [B15, (E)-6-methyl-3-(3-oxo-3-(2,4,6-trimethoxyphenyl)prop-1-en-1-yl)quinolin-2(1H)-one]
> 100 | > 100 | > 100 | > 100 |  |  |  |  | COc1cc(OC)c(C(=O)/C=C/c2ccc(OCc3cnc4ccccc4c3)cc2)c(OC)c1 [C9, (E)-3-(4-(quinolin-3-ylmethoxy)phenyl)-1-(2,4,6-trimethoxyphenyl)prop-2-en-1-one]
> 100 | 73.6 ± 1.17 | > 100 | 22.6 ± 1.11 |  |  |  |  | COc1cc(OC)c(C(=O)/C=C/c2ccc(OCC3CCCC3)cc2)c(OC)c1 [C2, (E)-3-(4-(cyclopentylmethoxy)phenyl)-1-(2,4,6-trimethoxyphenyl)prop-2-en-1-one]
12.6 ± 0.73 | 18.4 ± 0.65 | 15.1 ± 0.62 | 18.1 ± 1.04 |  |  |  |  | COc1cc(OC)c(C(=O)/C=C/c2cc3cc(F)ccc3[nH]c2=O)c(OC)c1 [B16, (E)-6-fluoro-3-(3-oxo-3-(2,4,6-trimethoxyphenyl)prop-1-en-1-yl)quinolin-2(1H)-one]
> 100 | > 100 | > 100 | > 100 |  |  |  |  | COc1cc(OC)c(C(=O)/C=C/c2ccc(OCc3ccc(Br)cc3)cc2)c(OC)c1 [C5, (E)-3-(4-((4-bromobenzyl)oxy)phenyl)-1-(2,4,6-trimethoxyphenyl)prop-2-en-1-one]
